Results from patent publication US10752626B2, “Iso-citrate dehydrogenase (IDH) inhibitor” (SHANGHAI METON PHARMACEUTICAL CO., LTD, priority 2016, dated 2020).

Molecular target: IDH1 R132C (Homo sapiens (Human), UniProt O75874, R132C)
Assay: Improved cell-based assay: D-2-HG in HT1080 cells over-expressing D-2-HG dehydrogenase
Conditions: 12 h
Text: The present disclosure also provides a cell based method for assaying IDH inhibition and selectivity of the compounds in human fibrosacoma cell line HT1080 and cholangiocarcinoma cell line HCCC 9810, which harbor endogenous heterozygous IDH1 R132C and R132H mutation respectively and accumulate D-2-HG Tumor derived IDH mutant lost its normal activity of producing α-KG and gained a new activity of producing D-2-HG D-2-HG is a metabolite specifically elevated in IDH mutated tumor samples.
By treating HT1080 and HCCC 9810 cells with an effective IDH inhibitor, the synthesis of D-2-HG is blocked, and D-2-HG concentration is decreased by the oxidation reaction catalyzed by D-2-HG dehydrogenase.
To perform a cell based IDH inhibitor assay, HT1080 and HCCC 9810 cells (or other cell lines harboring different IDH mutations) are cultured in DMEM supplemented with 10% FBS. The cells are treated with compounds of present disclosure at various different concentration. At various time points (between 4-24 hours) after the treatment, cell culture supernatants were removed and cells were washed with PBS for one or two times. Cell metabolites are extracted by adding 80% methanol (pre-chilled under −80° C.) in the cells, extract at 4° C. temperature for 60 min, centrifuged to remove any insoluble component. Metabolites (clear supernatant from the previous step) are lyophilized and reconstituted in pyridine containing 20 mg/ml O-methoxyamineHCl and are incubated at 70° C. for 40 minutes. After cooling down to room temperature, MTBSTFA (N-tert-Butyldimethylsilyl-N-methyltrifluoroacetamide, Sigma Aldrich) is added at a volume ratio of 4:7 (e.g., 20 μL MTBSTFA to 35 μL 20 mg/ml O-methoxyamineHCl solution) and derivation is performed at 70° C. for 30 minutes. The derived metabolites including D-2-HG are analyzed by Agilent 7890A-5750 GC/MS system. […] of the derived metabolite is injected into Agilent 7890A-5750 for D-2-HG concentration analysis. GC oven temperature is programmed from 140° C. to 260° C. at 10° C./min, from 260° C. to 310° C. at 8° C./min and hold at 310° C. for 5 min. The flow rate of carrier gas is 1 ml/min. The mass spectrometer is operated in the electron impact (EI) mode at 70 eV D-2-HG is normalized to endogenous glutamate.
The activity of IDHs in the presence of each compounds at different concentrations can be represented by relative D-2-HG concentration to negative control samples, and the IC50 value, the inhibition and selectivity for each compound can be evaluated.
The present disclosure also provides an improved cell-based assay for IDH inhibition and selectivity of the compounds, which involves stably over-expressing D-2-HG dehydrogenase in HT1080 and HCCC 9810 cells.
According to previous report, over expression of D-2-HG dehydrogenase decreases the half-life of D-2-HG in HT1080 cells (FIGS. 2A and 2B) [“D-2-hydroxyglutarate is essential for maintaining oncogenic property of mutant IDH-containing cancer cells but dispensable for cell growth”, Ma, S., et al., Oncotarget, (2015)], making the cells more sensitive to D-2-HG synthesis blockage by mutant IDH1 inhibitors. It will greatly increase the sensitivity and accurateness of this cell based assay. In the improved cell-based assay, all other steps are performed as disclosed in Test 6.
The D-2-HG inhibition activity of compounds was also assessed in the improved cell-based assay according to the method disclosed in Test 7 of the Biological evaluation section. HT1080 cells over-expressing D-2-HG dehydrogenase were cultured in 35 mm plate and treated with each of Compounds 1-37 at a concentration of 0.5 μM, 1 μM, 2.5 μM and 5 μM for 12 h, respectively, and the D-2-HG concentration was analysed. The inhibition ratio of D-2-HG in HT1080 cell by the exemplary Compounds 16, 21-24 and 31 at different concentrations were shown in Table 10.

Chain of IDH1 R132C (O75874 2-414 R132C): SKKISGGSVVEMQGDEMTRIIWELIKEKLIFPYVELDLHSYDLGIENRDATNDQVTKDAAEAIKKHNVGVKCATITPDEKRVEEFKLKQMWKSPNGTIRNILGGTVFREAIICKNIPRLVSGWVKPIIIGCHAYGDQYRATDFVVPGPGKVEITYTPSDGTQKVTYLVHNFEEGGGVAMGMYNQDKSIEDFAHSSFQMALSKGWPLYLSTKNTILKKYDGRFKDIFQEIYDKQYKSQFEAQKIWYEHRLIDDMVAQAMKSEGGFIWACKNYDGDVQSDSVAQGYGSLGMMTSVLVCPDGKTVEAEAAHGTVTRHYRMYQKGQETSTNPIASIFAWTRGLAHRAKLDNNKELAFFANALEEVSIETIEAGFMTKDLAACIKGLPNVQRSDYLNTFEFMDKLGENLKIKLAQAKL

Compound	Inhibition ratio of D-2-HG in HT1080 cell (0.5 μM) [%]	Inhibition ratio of D-2-HG in HT1080 cell (1 μM) [%]	Inhibition ratio of D-2-HG in HT1080 cell (2.5 μM) [%]	Inhibition ratio of D-2-HG in HT1080 cell (5 μM) [%]
CCN1Cc2c(ccnc2N[C@@H](C)c2ccc(Oc3ccc(C)cc3)cc2)C1=O [Compound 16, (S)-2-ethyl-4-(1-(4-(p-tolyloxy)phenyl)ethylamino)-2,3-dihydro-1H-pyrrolo [3,4-c]pyridin-1-one]	51	60.2	67	82.2
CCN1Cc2c(ccnc2N[C@@H](C)c2ccc(Oc3ccccc3)c(F)c2)C1=O [Compound 23, (S)-2-ethyl-4-((1-(3-fluoro-4-phenoxyphenyl)ethyl)amino)-2,3-dihydro-1H-pyrrolo[3,4-c]pyridin-1-one]	12.5	30.7	68.3	76.7
